Where two headings read alike, the source gives them in different places.
What was measured:
Type in all cases: cell-based
[1] = system: Trypanosoma brucei Lister 427 VSG221 with APOL1 G0 recombinant protein; experiment: APOL1 G0 trypanosome cell rescue assay (Example B5); settings: geometric mean of at least 2 assay runs, † = single assay run
In short: (§1)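 Viability read by CellTiter-Glo luminescence after 20 h co-incubation (37° C, 5% CO2) of 250 trypanosomes/well in modified HMI-9 with test compound (duplicate 11-point, 2-fold dilutions, 0.4% DMSO) and APOL1 protein, […]. Protein: mature residues 28-398, E. coli inclusion-body refolded, tag cleaved, in DDM.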

[2] = system: HEK293 clonal cell line overexpressing APOL1 G1; experiment: APOL1 G1 HEK293 cell rescue assay (Example B3); settings: geometric mean of at least 2 runs, † = single run, ¥ = concentration at 50% rescue estimated (no sigmoidal curve)
In short: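 Rescue of cell death caused by APOL1 G1 overexpression was measured in a clonal HEK293 line. Compounds were tested in duplicate on one plate, and EC50s were geometric means across at least two runs on different days. Some values are estimated 50%-rescue concentrations where curve fitting failed.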

[3] = system: Trypanosoma brucei Lister 427 VSG221 with APOL1 G2 recombinant protein; experiment: APOL1 G2 trypanosome cell rescue assay (Example B5); settings: geometric mean of at least 2 assay runs, † = single assay run
In short: as §1

[4] = system: Trypanosoma brucei Lister 427 VSG221 with APOL1 G1 recombinant protein; experiment: APOL1 G1 trypanosome cell rescue assay (Example B5); settings: geometric mean of at least 2 assay runs, † = single assay run
In short: as §1

[5] = Trypanosoma brucei, 20 h, read-out: APOL1 G0 Trypanosome Rescue EC50, Trypanosoma brucei Lister 427 VSG221 with APOL1 G0 recombinant protein, 20 hours, CellTiter-Glo
[6] = HEK293 clonal line overexpressing APOL1 G1
[7] = Trypanosoma brucei, 20 h, read-out: APOL1 G2 Trypanosome Rescue EC50, Trypanosoma brucei Lister 427 VSG221 with APOL1 G2 recombinant protein, 20 hours, CellTiter-Glo
[8] = Trypanosoma brucei, 20 h, read-out: APOL1 G1 Trypanosome Rescue EC50, Trypanosoma brucei Lister 427 VSG221 with APOL1 G1 recombinant protein, 20 hours, CellTiter-Glo
[9] = Homo sapiens, HEK293, HEK293 clonal line overexpressing APOL1 G1
[10] = read-out: APOL1 G0 Trypanosome Rescue EC50, Trypanosoma brucei Lister 427 VSG221 with APOL1 G0 recombinant protein, 20 hours, CellTiter-Glo
[11] = read-out: APOL1 G2 Trypanosome Rescue EC50, Trypanosoma brucei Lister 427 VSG221 with APOL1 G2 recombinant protein, 20 hours, CellTiter-Glo
[12] = read-out: APOL1 G1 Trypanosome Rescue EC50, Trypanosoma brucei Lister 427 VSG221 with APOL1 G1 recombinant protein, 20 hours, CellTiter-Glo

SMILES | EC50 [1, 5] | EC50 [2, 6] | EC50 [3, 7] | EC50 [4, 8] | EC50 [2, 9] | EC50 [1, 10] | EC50 [3, 11] | EC50 [4, 12]
N#Cc1ccc2c(c1)C1(CCN(CCOc3ccc4c(c3)CCN3C(=O)NCC43)CC1)C(=O)N2 (single isomer, unassigned) [Compound 120, (R) or (S)-2-oxo-1′-[2-({3-oxo-1H,2H,3H,5H,6H,10bH-imidazo[4,3-a]isoquinolin-8-yl}oxy)ethyl]-1,2-dihydrospiro[indole-3,4′-piperidine]-5-carbonitrile] | 807 nM | > 5230 nM | 346 nM | 1250 nM |  |  |  | 
CS(=O)(=O)c1ccc(OCCN2CCC3(CC2)C(=O)Nc2ccc(C#N)cc23)cc1C(F)(F)F [Compound 107, 1′-{2-[4-methanesulfonyl-3-(trifluoromethyl)phenoxy]ethyl}-2-oxo-1,2-dihydrospiro[indole-3,4′-piperidine]-5-carbonitrile] | 57.2 nM |  | 23 nM | 93.5 nM | 120 nM |  |  | 
CN1Cc2cc(OCCN3CCC4(CC3)C(=O)Nc3ccc(Cl)cc34)ccc2C1=O [Compound 146, 5-chloro-1′-{2-[(2-methyl-1-oxo-2,3-dihydro-1H-isoindol-5-yl)oxy]ethyl}-1,2-dihydrospiro[indole-3,4′-piperidin]-2-one] | 346 nM |  | 119 nM | 427 nM | 221 nM |  |  | 
CS(=O)(=O)C1(c2ccc(OCCN3CCC4(CC3)C(=O)Nc3ccc(Cl)cc34)cc2C(F)(F)F)COC1 [Compound 165, 5-chloro-1′-{2-[4-(3-methanesulfonyloxetan-3-yl)-3-(trifluoromethyl)phenoxy]ethyl}-1,2-dihydrospiro[indole-3,4′-piperidin]-2-one] | 28.7 nM |  | 11.1 nM | 33.8 nM | 59 nM |  |  | 
CC(C)(C#N)c1ccc(OCCN2CCC3(CC2)C(=O)Nc2ccc(C#N)cc23)cc1 [Compound 157, 1′-{2-[4-(1-cyano-1-methylethyl)phenoxy]ethyl}-2-oxo-1,2-dihydrospiro[indole-3,4′-piperidine]-5-carbonitrile] | 109 nM |  | 45.1 nM | 142 nM | 152 nM |  |  | 
O=C1Nc2ccc(Cl)cc2C12CCN(CCOc1ccc(S(=O)(=O)[C@H]3C[C@@H](O)C3)cc1)CC2 [Compound 17, 5-chloro-1′-[2-(4-{[(cis)-3-hydroxycyclobutyl]sulfonyl}phenoxy)ethyl]-1,2-dihydrospiro[indole-3,4′-piperidin]-2-one] | 108 nM |  | 36.7 nM | 148 nM | 160 nM |  |  | 
CS(=O)(=O)c1ccc(OCCN2CCC3(CC2)C(=O)Nc2ccc(C#N)cc23)cc1OC(F)F [Compound 164, 1′-{2-[3-(difluoromethoxy)-4-methanesulfonylphenoxy]ethyl}-2-oxo-1,2-dihydrospiro[indole-3,4′-piperidine]-5-carbonitrile] | 211 nM |  | 87.1 nM | 349 nM | 316 nM |  |  | 
CN(c1c(F)cc(OCCN2CCC3(CC2)C(=O)Nc2ccc(Cl)cc23)cc1F)S(C)(=O)=O [Compound 127, N-[4-(2-{5-chloro-2-oxo-1,2-dihydrospiro[indole-3,4′-piperidin]-1′-yl}ethoxy)-2,6-difluorophenyl]-N-methylmethanesulfonamide] | 64.9 nM |  | 29.4 nM | 83.9 nM | 61 nM |  |  | 
O=C1CCc2cc(OCCN3CCC4(CC3)C(=O)Nc3ccc(Cl)cc34)ccc2N1C1COC1 [Compound 99, 5-chloro-1′-(2-{[1-(oxetan-3-yl)-2-oxo-1,2,3,4-tetrahydroquinolin-6-yl]oxy}ethyl)-1,2-dihydrospiro[indole-3,4′-piperidin]-2-one] | 216 nM |  | 90.1 nM | 346 nM | 205 nM |  |  | 
Cc1cc(OCCN2CCC3(CC2)C(=O)Nc2ccc(C#N)cc23)cnc1S(C)(=O)=O [Compound 140, 1′-{2-[(6-methanesulfonyl-5-methylpyridin-3-yl)oxy]ethyl}-2-oxo-1,2-dihydrospiro[indole-3,4′-piperidine]-5-carbonitrile] | 408 nM |  | 164 nM | 653 nM | 600 nM |  |  | 
CS(=O)(=O)C1(c2ccc(OCCN3CCC4(CC3)C(=O)Nc3ccc(Cl)cc34)cc2)CC1 [Compound 102, 5-chloro-1′-{2-[4-(1-methanesulfonylcyclopropyl)phenoxy]ethyl}-1,2-dihydrospiro[indole-3,4′-piperidin]-2-one] | 47.3 nM |  | 18 nM | 50.5 nM | 111 nM |  |  | 
O=C1Nc2ccc(Cl)cc2C12CCN(CCOc1ccc(C3CCCS3(=O)=O)cc1)CC2 (single isomer, unassigned) [Compound 177, (R) or (S)-2-[4-(2-{5-chloro-2-oxo-1,2-dihydrospiro[indole-3,4′-piperidin]-1′-yl}ethoxy)phenyl]-1λ^6-thiolane-1,1-dione] |  | 132 nM |  |  |  | 260 nM | 84.4 nM | 314 nM
CC(c1c(F)cc(OCCN2CCC3(CC2)C(=O)Nc2ccc(C#N)cc23)cc1F)S(C)(=O)=O (centres unmarked) [Compound 137, 1′-{2-[3,5-difluoro-4-(1-methanesulfonylethyl)phenoxy]ethyl}-2-oxo-1,2-dihydrospiro[indole-3,4′-piperidine]-5-carbonitrile] | 322 nM |  | 119 nM | 454 nM | 249 nM |  |  | 
CS(=O)(=O)C1(c2ccc(OCCN3CCC4(CC3)C(=O)N(CC(F)(F)F)c3ccc(Cl)cc34)cc2)COC1 [Compound 185, 5-chloro-1′-{2-[4-(3-methanesulfonyloxetan-3-yl)phenoxy]ethyl}-1-(2,2,2-trifluoroethyl)-1,2-dihydrospiro[indole-3,4′-piperidin]-2-one] | 310 nM |  | 140 nM | 479 nM | 231 nM |  |  | 
CN=S(C)(=O)c1ccc(OCCN2CCC3(CC2)C(=O)Nc2ccc(C#N)cc23)cc1 (single isomer, unassigned) [Compound 151, (S) or (R)-1′-(2-{4-[methyl(methylimino)oxo-λ^6-sulfanyl]phenoxy}ethyl)-2-oxo-1,2-dihydrospiro[indole-3,4′-piperidine]-5-carbonitrile] | 1040 nM |  | 347 nM | 1330 nM | ~2500 nM |  |  | 
CN=S(C)(=O)c1ccc(OCCN2CCC3(CC2)C(=O)Nc2ccc(C#N)cc23)cc1 (single isomer, unassigned) [Compound 152, (R) or (S)-1′-(2-{4-[methyl(methylimino)oxo-λ^6-sulfanyl]phenoxy}ethyl)-2-oxo-1,2-dihydrospiro[indole-3,4′-piperidine]-5-carbonitrile] |  | > 4170 nM |  |  |  | 1050 nM | 416 nM | 1530 nM
Cc1cc(OCCN2CCC3(CC2)C(=O)Nc2ccc(Cl)cc23)cc(C)c1S(C)(=O)=O [Compound 129, 5-chloro-1′-[2-(4-methanesulfonyl-3,5-dimethylphenoxy)ethyl]-1,2-dihydrospiro[indole-3,4′-piperidin]-2-one] | 65.2 nM |  | 22.2 nM | 69.5 nM | 72.8 nM |  |  | 
O=C1CCc2cc(OCCN3CCC4(CC3)C(=O)Nc3ccc(Cl)cc34)ccc2N1CCO [Compound 162, 5-chloro-1′-(2-{[1-(2-hydroxyethyl)-2-oxo-1,2,3,4-tetrahydroquinolin-6-yl]oxy}ethyl)-1,2-dihydrospiro[indole-3,4′-piperidin]-2-one] | 143 nM |  | 50.9 nM | 142 nM | 174 nM |  |  | 
CN1C(=O)C2(CCN(CCOc3cc(F)c(C4(S(C)(=O)=O)COC4)c(F)c3)CC2)c2cc(C#N)ccc21 [Compound 189, 1′-{2-[3,5-difluoro-4-(3-methanesulfonyloxetan-3-yl)phenoxy]ethyl}-1-methyl-2-oxo-1,2-dihydrospiro[indole-3,4′-piperidine]-5-carbonitrile] | 167 nM |  | 61.4 nM | 246 nM | 148 nM |  |  | 
CN1C(=O)Cc2cc(OCCN3CCC4(CC3)C(=O)Nc3ccc(C#N)cc34)cc(F)c21 [Compound 169, 1′-{2-[(7-fluoro-1-methyl-2-oxo-2,3-dihydro-1H-indol-5-yl)oxy]ethyl}-2-oxo-1,2-dihydrospiro[indole-3,4′-piperidine]-5-carbonitrile] | 619 nM |  | 295 nM | 918 nM | 1030 nM |  |  | 
